# In patent publication US6458357B1, “Retro-inverso neurotrophic and analgesic peptides” (Myelos Corporation, priority 1997, dated 2002):
# Entries after “also recorded” stand apart in the source; their conditions may differ. Where a SMILES comes first, the peptide text is derived from it. Where no end group is shown, it is not given here. [ ]: non-standard residue; d: D form.
# Assays:
# [1] = in vivo; cited from earlier work
# neurite outgrowth = conditions: system not specified; cited from earlier work
# [2] = test system: mouse cerebellar explants; conditions: cited from earlier work
# [3] = test system: choline acetyltransferase activity; conditions: neuroblastoma cells in vitro; cited from earlier work
# neuroblastoma cells [4] = conditions: neuroblastoma cells in vitro; cited from earlier work
# neuroblastoma cells [5] = conditions: cited from earlier work
# [6] = Localization of 125I-labelled peptide D4 in organs after intramuscular injection
# Procedure: After 20 min., the rat was anesthetized, perfused with PBS and the organs removed and counted in a gamma counter.
# [7] = Integrity (intactness) of peptide D4 in organs by HPLC 60 minutes after injection; type: in vivo, rat
# Procedure: In another study, an aliquot of brain, liver, lung and kidney was taken 60 minutes after injection for HPLC analyses (Vydac C4 column) to determine the integrity (intactness) of the peptide in brain, blood and kidney. Peptide D4 was 95% intact in these organs, indicating the in vivo stability of this peptide after 60 minutes. The peak at 16 min. is intact D4; a breakdown product peak is evident at 4 min.
# [8] = test system: newborn mouse cerebellar explants; assay: Ex vivo myelination assay in newborn mouse cerebellar explants; type: cell-based; conditions: added on second day, observed for 22 days in culture; saposin C positive control 1-10 μg/ml
# Procedure: Newborn mouse cerebellar explants are prepared according to Satomi (Zool. Sci. 9:127-137, 1992). Neurite outgrowth and myelination are observed for 22 days in culture, during the period when the newborn mouse cerebellum normally undergoes neuronal differentiation and myelination begins. D2, D3, D4, D5 or another peptide including SEQ ID NO: 12 is added on the second day after preparation of the explants (three control and three treated explants) and outgrowth of neurites and myelination are assessed under a bright field microscope with a video camera. Saposin C is used as a positive control at a concentration of between about 1 and 10 μg/ml.
# [9] = test system: NS20Y neuroblastoma cells; assay: NS20Y neuroblastoma neurite outgrowth assay; type: cell-based; conditions: for neurite outgrowth (neuritogenic activity): 0.5-8 ng/ml peptide, 24 hours, DMEM 0.5% FCS
# Procedure: NS20Y neuroblastoma cells were grown in DMEM containing 10% fetal calf serum (FCS). Cells were removed with trypsin and plated in 30 mm petri dishes onto glass coverslips. After 20-24 hours, the medium was replaced with 2 ml DMEM containing 0.5% FCS plus 0, 0.5, 1, 2, 4 or 8 ng/ml effector peptides. Cells were cultured for an additional 24 hours, washed with PBS and fixed with Bouin's solution (saturated aqueous picric acid/formalin/acetic acid 15:5:1) for 30 minutes. Fixative was removed with PBS and neurite outgrowth was scored under a phase contrast microscope. […] At least 200 cells were scored in different portions of each dish to determine the percentage of neurite bearing cells and assays were performed in duplicate.
# Increased neurite outgrowth was evident using as little as 0.5 ng/ml peptide.
# [10] = test system: NS20Y neuroblastoma cells; assay: Cell death assay, trypan blue staining of NS20Y cells in low serum; type: cell-based; conditions: for reduction of the number of trypan blue-positive (dead) cells: NS20Y cells, 8 ng/ml peptide, 2 days in 0.5% fetal bovine serum; for prevention of cell death: neuroblastoma cells in culture
# Procedure: NS20Y cells were plated as described in Example 1 and grown on glass coverslips in 0.5% fetal bovine serum for 2 days in the presence or absence of 8 ng/ml effector peptides. Media was removed and 0.2% trypan blue in PBS was added to each well. Blue-staining dead cells were scored as a percentage of the total on an inverted microscope, counting 400 cells in four areas of each well. The average error of duplicates was ±5%.
molecule,measurement,setting,value
"18-mer: YKEVTKLIDNNKTEKEIL; SEQ ID NO: 2; within the active 22-mer of saposin C, V replaced by Y (Homo Sapien)",crossing of the blood-brain barrier,[1],crosses the blood brain barrier; also recorded: able to cross the blood-brain barrier
same,neurite outgrowth,neurite outgrowth,promotes neurite outgrowth
22-mer: CEFLVKEVTKLIDNNKTEKEIL; SEQ ID NO: 1; amino acids 8-29 of human saposin C (Homo Sapien),neurite outgrowth,[2],stimulates neurite outgrowth
same,choline acetyltransferase activity,[3],stimulates choline acetyltransferase activity
same,prevention of cell death,neuroblastoma cells [4],prevented cell death
same,neurite outgrowth,neuroblastoma cells [5],stimulates neurite outgrowth
CC(C)C[C@@H](NC(=O)[C@@H](CC(C)C)NC(=O)[C@@H](CC(=O)O)NC(=O)[C@@H](CC(N)=O)NC(=O)[C@@H](CC(N)=O)NC(=O)[C@@H](C)NC(=O)[C@H](NC(=O)[C@@H](CCC(=O)O)NC(=O)[C@@H](CCC(=O)O)NC(=O)[C@@H](CC(C)C)NC(=O)[C@@H](CC(C)C)NC(=O)[C@H](N)Cc1ccc(O)cc1)[C@H](C)O)C(=O)O [peptide D4] (H-[dY][dL][dL][dE][dE][dT][dA][dN][dN][dD][dL][dL]-OH; N-terminus and C-terminus assumed),presence of peptide in the brain,[6]; after intramuscular injection into a rat,significant amounts
same,concentration in brain relative to required neurotrophic dose for neural cells determined in vitro,"[6]; brain, 20 min after 200 μg/kg intramuscular, rat",approximately 20 times
same,in vivo stability,[7]; 60 minutes after injection,stable in vivo
same,crossing of the blood brain barrier,"[7]; after intramuscular injection, rat",crosses the blood brain barrier in amounts sufficient to exert a therapeutic effect
D3: retro-inverso peptide YLEETANNDLLAT; SEQ ID NO: 11 ([dY][dL][dE][dE][dT][dA][dN][dN][dD][dL][dL][dA][dT]; also: retro-inverso),stimulation of myelination,[8],to a similar extent as with saposin C
same,neurite outgrowth (neuritogenic activity),[9],promoted neurite outgrowth in vitro
"TX14(A): TXLIDNNATEEILY, X=D-alanine; SEQ ID NO: 4; modified 15-mer of human saposin C (T[dA]LIDNNATEEILY) [TX…, X=D-alanine; modified 15-mer of human saposin C, reference compound]",reduction of the number of trypan blue-positive (dead) cells,[10],about 50%
same,prevention of cell death,[10],prevented cell death in neuroblastoma cells in culture to the same extent
same,neurite outgrowth (neuritogenic activity),[9],exhibited neuritogenic activity; also recorded: induced neurite outgrowth
"peptide D2: YLIEETANNDILAT, all D-amino acids; SEQ ID NO: 5; retro-inverted TX14(A) ([dY][dL][dI][dE][dE][dT][dA][dN][dN][dD][dI][dL][dA][dT]; also: retro-inverted)",reduction of the number of trypan blue-positive (dead) cells,[10],about 50%
same,prevention of cell death,[10],prevented cell death in neuroblastoma cells in culture to the same extent
same,stimulation of myelination,[8],to a similar extent as with saposin C
same,neurite outgrowth activity compared with TX14(A),[9],slightly more active that TX14(A); also recorded: slightly more effective than TX14(A)
same,neurite outgrowth (neuritogenic activity),[9],exhibited neuritogenic activity; also recorded: induced neurite outgrowth
"rat 14-mer: rat 14-mer derived from the saposin C active sequence, SELIINNATEELLY; SEQ ID NO: 6 (Homo Sapien) [reference compound]",neurite outgrowth (neuritogenic activity),[9],induced neurite outgrowth
"saposin C: small heat-stable glycoprotein generated by proteolytic processing of prosaposin (protein, UniProt P07602 311-390, looked up, Saposin-C) Saposin-C: SDVYCEVCEFLVKEVTKLIDNNKTEKEILDAFDKMCSKLPKSLSEECQEVVDTYGSSILSILLEEVSPELVCSMLHLCSG",myelination,neurite outgrowth,promote increased myelination
same,neurite outgrowth,neurite outgrowth,stimulate neurite outgrowth
